Data set [1] in a line: Hepatic clearance in human liver microsomes at 1 uM after 20 to 60 mins by LC-MS/MS analysis. Format: ADME, Microsome.
A short description of data set [2]: Hepatic clearance in CD-1 mouse hepatocytes at 1 uM by LC-MS/MS analysis. The class given is ADME, cell-based, Liver, Hepatocyte.
A short description of data set [3]: Hepatic clearance in CD-1 mouse liver microsomes at 1 uM after 20 to 60 mins by LC-MS/MS analysis. The class given is ADME, Microsome.
A short description of data set [4]: Apparent permeability from apical to basolateral side in MDCK cells at 10 uM by LC-MS/MS analysis. Format: ADME, cell-based, Canis lupus familiaris. The conditions noted are these: dog.
The nature of data set [5]: Aqueous solubility of the compound in PBS buffer at 100 uM after 24 hrs by LC/CLND analysis. The class given is physicochemical.
Data set [6] in a line: Volume of distribution at steady state in BALB/c mouse at 1 mg/kg, iv by LC/MS/MS analysis. Format: ADME, organism-based. Details: dose 1 mg/kg, route intravenous. Conditions: in vivo, read-out: Vdss.
A short description of data set [7]: Clearance in BALB/c mouse at 1 mg/kg, iv by LC/MS/MS analysis. Conditions: in vivo. Details: dose 1 mg/kg, route intravenous. The class given is ADME, organism-based.
Data set [8] is described as follows: Oral bioavailability in BALB/c mouse at 5 mg/kg by LC/MS/MS analysis. Format: ADME, organism-based. The conditions noted are these: in vivo.
A short description of data set [9]: Half life in BALB/c mouse at 5 mg/kg, po by LC/MS/MS analysis. Format: ADME, organism-based. Further details: dose 5 mg/kg, route oral. Conditions: in vivo.
A short description of data set [10]: Tmax in BALB/c mouse at 5 mg/kg, po by LC/MS/MS analysis. Format: ADME, organism-based. Further details: dose 5 mg/kg, route oral. The conditions noted are these: in vivo.
Data set [11] can be described thus: Half life in BALB/c mouse at 1 mg/kg, iv by LC/MS/MS analysis. Format: ADME, organism-based. Details: dose 1 mg/kg, route intravenous. Conditions: in vivo.
The nature of data set [12]: Cmax in BALB/c mouse at 5 mg/kg, po by LC/MS/MS analysis. The class given is ADME, organism-based. Details: dose 5 mg/kg, route oral. Conditions: in vivo.

Converted amounts (≈) assume the structure as drawn.

Consider `O=C(NCc1cccnc1)Nc1ccc(S(=O)(=O)N2CCOCC2)cc1`, for which the CLhep predicted at 1 µM in data set [1] is 6 mL/min/kg.

Regarding `O=C(NCc1cccnc1)Nc1ccc(S(=O)(=O)c2ccccc2)cc1`, the CLhep predicted at 1 µM in data set [1] was 8 mL/min/kg.

Take `O=C(NCc1cccnc1)Nc1ccc(S(=O)(=O)N2C3CCC2COC3)cc1`: in [1], the CLhep predicted at 1 µM was 8 mL/min/kg.

In the case of `O=C(NCc1cccnc1)Nc1ccc(S(=O)(=O)N2C[C@@H]3C[C@H]2CO3)cc1`, the CLhep predicted at 1 µM in data set [1] was 3 mL/min/kg.

For `O=C(NCc1cccnc1)Nc1ccc(S(=O)(=O)N2CCC23COC3)cc1`, in data set [1], the CLhep predicted at 1 µM was 8 mL/min/kg.

As to `O=C(NCc1cccnc1)Nc1ccc(S(=O)(=O)N2CC3(COC3)C2)cc1`, in data set [1], the CLhep predicted at 1 µM is 7 mL/min/kg.

Regarding `O=C(NCc1cccnc1)Nc1ccc(S(=O)(=O)N2CCC3(CCCN3)CC2)cc1`, the CLhep predicted at 1 µM in data set [1] is 7 mL/min/kg.

Regarding `O=C(NCc1cccnc1)Nc1ccc(S(=O)(=O)N2CCC3(CCNC3)CC2)cc1`, the values for the CLhep predicted at 1 µM in data set [2], in data set [1] and in data set [3] were 9.2 mL/min/kg, 4 mL/min/kg and 44 mL/min/kg, respectively. Also, in data set [4], the Papp A→B at 10 µM came out at 0.07 ×10⁻⁶ cm/s. This compound also had a solubility at 24 h, 100 µM in data set [5] of 75 µM (≈ 32.2 µg/mL).

For the compound `O=C(NCc1cccnc1)Nc1ccc(S(=O)(=O)N2CCC3(CCNCC3)C2)cc1`, the CLhep predicted at 1 µM in data set [1] was 2 mL/min/kg.

For `O=C(NCc1cccnc1)Nc1ccc(S(=O)(=O)N2CCCNCC2)cc1`, the CLhep predicted at 1 µM in [1] was 6 mL/min/kg.

In the case of `O=C(NCc1cccnc1)Nc1ccc(S(=O)(=O)N[C@@H]2CCNC[C@H]2F)cc1`, in [1], the CLhep predicted at 1 µM was 3 mL/min/kg.

For `CCN1CC[C@@H](NS(=O)(=O)c2ccc(NC(=O)NCc3cccnc3)cc2)[C@@H](F)C1`, the CLhep predicted at 1 µM in data set [1] is 6 mL/min/kg.

As for `N[C@H]1CC[C@H](NS(=O)(=O)c2ccc(NC(=O)NCc3cccnc3)cc2)CC1`, the CLhep predicted at 1 µM was 6.3 mL/min/kg in data set [2], 5 mL/min/kg in data set [1] and 27 mL/min/kg in [3]. In data set [4], the Papp A→B at 10 µM was 0.2 ×10⁻⁶ cm/s. The solubility at 24 h, 100 µM in data set [5] was 161 µM (≈ 65 µg/mL).

Consider `O=C(NCc1cccnc1)Nc1ccc(S(=O)(=O)N[C@H]2CC[C@H](O)CC2)cc1`, for which the CLhep predicted at 1 µM in data set [1] is 2 mL/min/kg.

Regarding `O=C(NCc1cccnc1)Nc1ccc(S(=O)(=O)N[C@H]2CCC[C@H](O)C2)cc1`, the CLhep predicted at 1 µM in data set [2] was 19 mL/min/kg; in data set [1], 4 mL/min/kg; in data set [3], 61 mL/min/kg. For the same compound, the Papp A→B at 10 µM in [4] came out at 0.1 ×10⁻⁶ cm/s. In addition, the solubility at 24 h, 100 µM in [5] turned out to be 136 µM (≈ 55 µg/mL).

For the compound `COc1ccc(CNC(=O)Nc2ccc(S(=O)(=O)c3ccccc3)cc2)cn1`, the CLhep predicted at 1 µM in data set [1] is 12 mL/min/kg.

Turning to `O=C(NCc1ccc(Cl)nc1)Nc1ccc(S(=O)(=O)c2ccccc2)cc1`, in [1], the CLhep predicted at 1 µM is 6 mL/min/kg.

Regarding `Nc1ccc(CNC(=O)Nc2ccc(S(=O)(=O)c3ccccc3)cc2)cn1`, the Vd in data set [6] turned out to be 0.51 L/kg. In data set [7], this compound showed a clearance of 4.9 mL/min/kg. Further, the bioavailability in data set [8] is 31%. Besides, the half-life in data set [9] was 2.7 h; in data set [11] it was 2.6 h. Further, the CLhep predicted at 1 µM in [2] is 12 mL/min/kg; in data set [1], 5 mL/min/kg; in [3] it was 42 mL/min/kg. Moreover, the Tmax in data set [10] amounted to 0.83 h. Besides, in data set [4], the Papp A→B at 10 µM was 2.9 ×10⁻⁶ cm/s. The compound further returned a solubility at 24 h, 100 µM in [5] of 109 µM (≈ 41.7 µg/mL). In addition, the Cmax in [12] stood at 2900 nM.

As for `O=C(NCc1cncc(F)c1)Nc1ccc(S(=O)(=O)c2ccccc2)cc1`, in [1], the CLhep predicted at 1 µM was 8 mL/min/kg.

On to `O=C(NCc1cccnn1)Nc1ccc(S(=O)(=O)c2ccccc2)cc1`, for which the CLhep predicted at 1 µM in data set [1] is 3 mL/min/kg.

Consider `O=C(NCc1cnccn1)Nc1ccc(S(=O)(=O)c2ccccc2)cc1`, for which, in data set [1], the CLhep predicted at 1 µM is 5 mL/min/kg.

As for `O=C(NCc1cncnc1)Nc1ccc(S(=O)(=O)c2ccccc2)cc1`, the CLhep predicted at 1 µM in data set [1] was 6 mL/min/kg.

Take `Nc1ncc(CNC(=O)Nc2ccc(S(=O)(=O)c3ccccc3)cc2)cn1`: the CLhep predicted at 1 µM in [1] was 3 mL/min/kg.

With `C[C@@H]1CN(S(=O)(=O)c2ccc(NC(=O)NCc3cccnc3)cc2)C[C@H](C)O1`, the CLhep predicted at 1 µM is 55 mL/min/kg in [2], 17 mL/min/kg in [1] and 81 mL/min/kg in data set [3]. The Papp A→B at 10 µM in [4] came to 3.1 ×10⁻⁶ cm/s. For the same compound, the solubility at 24 h, 100 µM in [5] amounted to 112 µM (≈ 45.3 µg/mL).

For the compound `CC1CNCCN(S(=O)(=O)c2ccc(NC(=O)NCc3cccnc3)cc2)C1` (racemic), the CLhep predicted at 1 µM is 16 mL/min/kg in data set [2], 8 mL/min/kg in data set [1] and 48 mL/min/kg in data set [3]. The Papp A→B at 10 µM in data set [4] was 0.1 ×10⁻⁶ cm/s. Further, the solubility at 24 h, 100 µM in data set [5] was 107 µM (≈ 43.2 µg/mL).

As for `CC1CCN(S(=O)(=O)c2ccc(NC(=O)NCc3cccnc3)cc2)CCN1` (racemic), in data set [1], the CLhep predicted at 1 µM was 5 mL/min/kg.

As to `O=C(NCc1cccnc1)Nc1ccc(S(=O)(=O)N2CCNC(C(F)(F)F)CC2)cc1` (racemic), the CLhep predicted at 1 µM in [1] was 18 mL/min/kg.

Consider `C[C@@H]1COC[C@@H](C)N1S(=O)(=O)c1ccc(NC(=O)NCc2cccnc2)cc1` (racemic), for which the CLhep predicted at 1 µM in [1] is 17 mL/min/kg.

These data come from ChEMBL document CHEMBL2390826, “Discovery of potent and efficacious urea-containing nicotinamide phosphoribosyltransferase (NAMPT) inhibitors with reduced CYP2C9 inhibition properties” (Bioorg Med Chem Lett, 2013).
